# Test results as given in ChEMBL document CHEMBL4699511, “Cedrol, a Sesquiterpene Alcohol, Enhances the Anticancer Efficacy of Temozolomide in Attenuating Drug Resistance via Regulation of the DNA Damage Response and MGMT Expression” (J Nat Prod, 2020).
# Activity calls are given as the source filed them. No cut-off for these calls is given here.
# Tests used:
# RG2 [1] = assay: Inhibition of ERK phosphorylation at Tyr204 residues in rat RG2 cells at 206 uM after 48 hrs by Western blot analysis (reference value: 1); type: cell-based
# DBTRG-05MG [2] = assay: Antitumour activity against human DBTRG-05MG cells xenografted in BALB/c nude mouse assessed as reduction in tumour growth at 5 mg/kg, ip for 5 days and measured every 2 days; type: functional, organism-based; settings: time 5.0 day
# RG2 [3] = assay: Induction of apoptosis in rat RG2 cells assessed as phosphorylated caspace-3 expression at 206 uM after 48 hrs by Western blot analysis (reference value: 1); type: functional
# DBTRG-05MG [4] = assay: Induction of cell cycle arrest in human DBTRG-05MG cells assessed as accumulation at S phase at 206 uM after 24 hrs by propidium iodide staining based flow cytometric analysis (reference value: 22.76 +/- 1.56%); type: functional
# DBTRG-05MG [5] = assay: Induction of cell cycle arrest in human DBTRG-05MG cells assessed as accumulation at G2/M phase at 206 uM after 24 hrs by propidium iodide staining based flow cytometric analysis (reference value: 30.08 +/- 0.1%); type: functional
# DBTRG-05MG [6] = assay: Induction of apoptosis in human DBTRG-05MG cells assessed as phosphorylated caspace-3 expression at 206 uM after 48 hrs by Western blot analysis (reference value: 1); type: functional
# [7] = Synergistic cytotoxicity against rat CTX TNA2 cells assessed as synergistic effect index at 134.9 uM after 48 hrs in presence of 206 uM TMZ by MTT assay; type: cell-based; settings: ctx tna2, 48 h
# RG2 [8] = assay: Synergistic cytotoxicity against rat RG2 cells assessed as synergistic effect index at 134.9 uM after 48 hrs in presence of 515.1 uM TMZ by MTT assay; type: functional
# DBTRG-05MG [9] = assay: Induction of cell cycle arrest in human DBTRG-05MG cells assessed as CyclinD1 expression at 112.4 uM after 48 hrs by Western blot analysis (reference value: 1); type: functional
# DBTRG-05MG [10] = assay: Induction of cell cycle arrest in human DBTRG-05MG cells assessed as accumulation at G0/G1 phase at 112.4 uM after 48 hrs in presence of TMZ by propidium iodide staining based flow cytometric analysis (reference value: 47.16 +/- 1.55%); type: functional
# [11] = Synergistic cytotoxicity against rat CTX TNA2 cells assessed as synergistic effect index at 112.4 uM after 48 hrs in presence of 103 uM TMZ by MTT assay; type: cell-based; settings: ctx tna2, 48 h
# [12] = target: MAP kinase p38 (Homo sapiens) (UniProt O15264+Q15759+Q16539+P53778); assay: Inhibition of p38 phosphorylation at Tyr182 residues in human DBTRG-05MG cells at 112.4uM after 48 hrs in presence of TMZ by Western blot analysis (reference value: 1); type: cell-based
# [13] = Effect on ERK expression in rat RG2 cells at 112.4uM after 48 hrs by Western blot analysis (reference value: 1); type: functional
# DBTRG-05MG [14] = assay: Induction of cell cycle arrest in human DBTRG-05MG cells assessed as accumulation at G2/M phase at 112.4 uM after 6 hrs in presence of TMZ by propidium iodide staining based flow cytometric analysis (reference value: 30.08 +/- 0.1%); type: functional
# RG2 [15] = assay: Induction of cell cycle arrest in rat RG2 cells assessed as accumulation at S phase at 112.4 uM after 12 hrs by propidium iodide staining based flow cytometric analysis (reference value: 20.15 +/- 2.44%); type: functional
# RG2 [16] = assay: Inhibition of AKT phosphorylation at S473 residues in rat RG2 cells at 112.4uM after 48 hrs by Western blot analysis; type: cell-based
# [17] = Synergistic cytotoxicity against rat CTX TNA2 cells assessed as combination index at 89.9 uM after 48 hrs in presence of 206 uM TMZ by MTT assay; type: cell-based; settings: ctx tna2, 48 h
# [18] = Synergistic cytotoxicity against rat CTX TNA2 cells assessed as synergistic effect index at 112.4 uM after 48 hrs in presence of 309 uM TMZ by MTT assay; type: cell-based; settings: ctx tna2, 48 h
# RG2 [19] = assay: Induction of DNA damage in rat RG2 cells assessed as ATR phosphorylation at ser428 residues at 112.4 uM after 48 hrs in presence of TMZ by Western blot analysis (reference value: 1); type: functional
# RG2 [20] = assay: Synergistic cytotoxicity against rat RG2 cells assessed as synergistic effect index at 112.4 uM after 48 hrs in presence of 206 uM TMZ by MTT assay; type: functional
# RG2 [21] = assay: Synergistic cytotoxicity against rat RG2 cells assessed as combination index at 134.9 uM after 48 hrs in presence of 206 uM TMZ by MTT assay; type: functional
# [22] = Effect on JNK expression in human DBTRG-05MG cells at 112.4uM after 48 hrs by Western blot analysis (reference value: 1); type: functional
# [23] = Effect of CD133 expression in rat RG2 cells at 112.4 uM after 48 hrs by Western blot analysis; type: functional
# DBTRG-05MG [24] = assay: Induction of apoptosis in human DBTRG-05MG cells assessed as phosphorylated caspace-9 expression at 112.4 uM after 48 hrs in presence of TMZ by Western blot analysis (reference value: 1); type: functional
# DBTRG-05MG [25] = assay: Inhibition of ERK phosphorylation at Tyr204 residues in human DBTRG-05MG cells at 112.4uM after 48 hrs in presence of TMZ by Western blot analysis (reference value: 1); type: cell-based
# RG2 [26] = assay: Induction of DNA damage in rat RG2 cells assessed as ATR phosphorylation at ser428 residues at 112.4 uM after 48 hrs by Western blot analysis (reference value: 1); type: functional
# DBTRG-05MG [27] = assay: Induction of DNA damage in human DBTRG-05MG cells assessed as ATM phosphorylation at ser1981 residues at 112.4 uM after 48 hrs in presence of TMZ by Western blot analysis (reference value: 1); type: functional
# RG2 [28] = assay: Induction of apoptosis in rat RG2 cells assessed as phosphorylated PARP expression at 112.4 uM after 48 hrs by Western blot analysis (reference value: 1); type: functional
# RG2 [29] = assay: Induction of cell cycle arrest in rat RG2 cells assessed as CyclinD1 expression at 112.4 uM after 48 hrs by Western blot analysis (reference value: 1); type: functional
# RG2 [30] = assay: Synergistic cytotoxicity against rat RG2 cells assessed as synergistic effect index at 112.4 uM after 48 hrs in presence of 103 uM TMZ by MTT assay; type: functional
# [31] = target: Serine/threonine-protein kinase AKT (Homo sapiens) (UniProt P31751+Q9Y243+P31749); assay: Inhibition of AKT phosphorylation at S473 residues in human DBTRG-05MG cells at 112.4uM after 48 hrs by Western blot analysis; type: cell-based
# Sequence of Serine/threonine-protein kinase AKT (Homo sapiens) (P31749 whole entry, looked up): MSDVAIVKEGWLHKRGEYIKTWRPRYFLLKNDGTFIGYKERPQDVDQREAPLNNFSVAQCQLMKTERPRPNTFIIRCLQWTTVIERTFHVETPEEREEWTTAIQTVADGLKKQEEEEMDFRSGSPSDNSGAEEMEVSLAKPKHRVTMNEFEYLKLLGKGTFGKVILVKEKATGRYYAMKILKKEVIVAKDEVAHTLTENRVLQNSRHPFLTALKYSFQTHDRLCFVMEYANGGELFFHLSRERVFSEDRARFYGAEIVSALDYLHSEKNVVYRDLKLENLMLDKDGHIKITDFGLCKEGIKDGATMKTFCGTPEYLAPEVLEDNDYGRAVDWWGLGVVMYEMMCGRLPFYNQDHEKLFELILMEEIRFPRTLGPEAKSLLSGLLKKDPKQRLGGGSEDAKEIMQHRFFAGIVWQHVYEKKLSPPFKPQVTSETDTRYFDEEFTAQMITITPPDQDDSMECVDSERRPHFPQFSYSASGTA
# Sequence of Serine/threonine-protein kinase AKT (Homo sapiens) (P31751 whole entry, looked up): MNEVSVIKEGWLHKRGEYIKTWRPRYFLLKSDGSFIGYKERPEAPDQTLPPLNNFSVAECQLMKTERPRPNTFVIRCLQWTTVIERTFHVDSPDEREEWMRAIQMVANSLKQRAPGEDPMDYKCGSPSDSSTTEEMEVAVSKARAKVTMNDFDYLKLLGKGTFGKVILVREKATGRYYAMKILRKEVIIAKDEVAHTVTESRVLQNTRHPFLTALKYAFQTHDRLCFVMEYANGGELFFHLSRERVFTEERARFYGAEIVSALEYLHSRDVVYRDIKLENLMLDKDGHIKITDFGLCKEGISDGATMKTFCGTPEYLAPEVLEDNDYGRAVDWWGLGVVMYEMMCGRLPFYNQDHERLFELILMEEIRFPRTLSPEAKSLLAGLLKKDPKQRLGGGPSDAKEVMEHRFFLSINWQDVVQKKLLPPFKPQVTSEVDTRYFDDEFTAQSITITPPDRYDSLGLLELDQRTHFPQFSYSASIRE
# Sequence of Serine/threonine-protein kinase AKT (Homo sapiens) (Q9Y243 whole entry, looked up): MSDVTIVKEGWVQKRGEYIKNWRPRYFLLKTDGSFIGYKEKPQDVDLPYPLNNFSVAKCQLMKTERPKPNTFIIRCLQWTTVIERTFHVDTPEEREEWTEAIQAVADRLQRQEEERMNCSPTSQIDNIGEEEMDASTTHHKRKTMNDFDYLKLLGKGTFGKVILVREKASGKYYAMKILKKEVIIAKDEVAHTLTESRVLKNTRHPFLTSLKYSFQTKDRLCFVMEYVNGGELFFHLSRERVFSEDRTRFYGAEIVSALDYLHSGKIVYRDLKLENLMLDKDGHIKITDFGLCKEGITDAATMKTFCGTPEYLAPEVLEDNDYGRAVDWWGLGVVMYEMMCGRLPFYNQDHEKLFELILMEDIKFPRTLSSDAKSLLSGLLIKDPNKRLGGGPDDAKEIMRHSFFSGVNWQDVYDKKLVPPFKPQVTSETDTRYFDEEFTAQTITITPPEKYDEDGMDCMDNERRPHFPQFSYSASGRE
# DBTRG-05MG [32] = assay: Inhibition of JNK phosphorylation at Thr183/Tyr185 residues in human DBTRG-05MG cells at 112.4uM after 48 hrs in presence of TMZ by Western blot analysis (reference value: 1); type: cell-based
# [33] = Synergistic cytotoxicity against rat CTX TNA2 cells assessed as combination index at 89.9 uM after 48 hrs in presence of 309 uM TMZ by MTT assay; type: cell-based; settings: ctx tna2, 48 h
smiles,measurement,setting,value
Cn1nnc2c(C(N)=O)ncn2c1=O [TEMOZOLOMIDE],fold change (FC),RG2 [1],0.7
same,Activity,DBTRG-05MG [2],Active
same,fold change (FC),RG2 [3],1.1
same,Activity,DBTRG-05MG [4],25.43%
same,Activity,DBTRG-05MG [5],43.53%
same,fold change (FC),DBTRG-05MG [6],1.3
C[C@@H]1CC[C@H]2C(C)(C)[C@H]3C[C@@]12CC[C@@]3(C)O [CEDROL],Activity_index,[7],0.43
same,Activity_index,RG2 [8],0.89
same,fold change (FC),DBTRG-05MG [9],0.7
same,Activity,DBTRG-05MG [10],41.16%
same,Activity_index,[11],0.26
same,fold change (FC),[12],1.2
same,fold change (FC),[13],1.1
same,Activity,DBTRG-05MG [14],32.51%
same,Activity,RG2 [15],16.92%
same,fold change (FC),RG2 [16],0.8
same,CI,[17],1.13
same,Activity_index,[18],0.51
same,fold change (FC),RG2 [19],1.1
same,Activity_index,RG2 [20],0.87
same,CI,RG2 [21],0.84
same,fold change (FC),[22],0.8
same,fold change (FC),[23],1
same,fold change (FC),DBTRG-05MG [24],0.4
same,fold change (FC),DBTRG-05MG [25],0.5
same,fold change (FC),RG2 [26],0.9
same,fold change (FC),DBTRG-05MG [27],2.9
same,fold change (FC),RG2 [28],0.6
same,fold change (FC),RG2 [29],1.4
same,Activity_index,RG2 [30],0.83
same,fold change (FC),[31],0.8
same,fold change (FC),DBTRG-05MG [32],0.8
same,CI,[33],1.13
